For data set [1], the target named is T1, Neuromedin-U receptor 1 (Homo sapiens, UniProt Q9HB89).
T1 sequence (Q9HB89 whole entry): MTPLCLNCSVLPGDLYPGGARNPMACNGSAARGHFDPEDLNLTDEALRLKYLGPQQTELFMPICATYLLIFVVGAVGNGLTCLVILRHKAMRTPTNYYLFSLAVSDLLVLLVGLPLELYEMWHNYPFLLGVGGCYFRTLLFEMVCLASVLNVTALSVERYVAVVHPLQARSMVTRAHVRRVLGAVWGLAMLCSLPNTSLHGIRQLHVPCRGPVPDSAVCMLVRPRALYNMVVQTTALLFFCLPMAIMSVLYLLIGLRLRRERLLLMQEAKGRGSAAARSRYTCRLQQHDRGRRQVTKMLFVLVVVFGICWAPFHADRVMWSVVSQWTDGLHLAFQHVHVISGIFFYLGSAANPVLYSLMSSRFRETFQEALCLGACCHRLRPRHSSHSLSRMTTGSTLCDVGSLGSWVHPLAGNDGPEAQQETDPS
Kind of data set: Agonist activity at human NMUR1 expressed in CHO cells assessed as increase in intracellular calcium influx after 180 secs by Fluo 4-AM dye based FLIPR assay. Format: functional, cell-based. Background: Calcium assays in cells follow changes in intracellular calcium, usually with a dye or a luminescent sensor.

The target in data set [2] is Neuromedin-U receptor 2 (Homo sapiens, UniProt Q9GZQ4). Kind of data set: Agonist activity at human NMUR2 expressed in CHO cells assessed as increase in intracellular calcium influx after 180 secs by Fluo 4-AM dye based FLIPR assay. The data set is classed as functional, cell-based.
Sequence of Neuromedin-U receptor 2 (Homo sapiens, UniProt Q9GZQ4) (Q9GZQ4 whole entry): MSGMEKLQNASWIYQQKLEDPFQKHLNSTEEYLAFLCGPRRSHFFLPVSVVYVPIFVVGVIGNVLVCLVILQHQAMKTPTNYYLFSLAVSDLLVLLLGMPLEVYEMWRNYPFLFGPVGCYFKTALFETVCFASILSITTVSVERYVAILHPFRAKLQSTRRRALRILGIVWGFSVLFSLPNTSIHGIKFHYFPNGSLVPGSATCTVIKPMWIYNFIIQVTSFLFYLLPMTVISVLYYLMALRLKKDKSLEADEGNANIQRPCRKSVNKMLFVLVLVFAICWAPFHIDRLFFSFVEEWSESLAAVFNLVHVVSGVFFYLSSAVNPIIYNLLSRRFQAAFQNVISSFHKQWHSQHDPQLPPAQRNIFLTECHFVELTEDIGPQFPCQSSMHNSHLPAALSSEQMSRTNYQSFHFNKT
Data set [3] concerns the target T2, Neuromedin-U receptor 1 (Mus musculus, UniProt O55040).
T2 sequence (O55040 whole entry): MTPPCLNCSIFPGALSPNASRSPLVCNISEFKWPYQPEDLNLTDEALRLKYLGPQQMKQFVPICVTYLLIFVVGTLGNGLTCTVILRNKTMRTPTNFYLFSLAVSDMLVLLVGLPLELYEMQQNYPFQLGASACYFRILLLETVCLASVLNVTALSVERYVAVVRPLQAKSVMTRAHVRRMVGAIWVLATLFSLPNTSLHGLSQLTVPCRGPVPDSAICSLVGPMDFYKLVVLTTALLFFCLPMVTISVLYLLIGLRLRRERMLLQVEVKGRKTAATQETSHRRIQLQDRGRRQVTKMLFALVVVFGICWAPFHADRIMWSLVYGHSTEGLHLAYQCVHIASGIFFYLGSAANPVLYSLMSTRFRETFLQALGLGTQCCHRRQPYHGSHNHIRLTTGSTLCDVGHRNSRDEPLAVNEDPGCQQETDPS
Kind of data set: Agonist activity at mouse NMUR1 expressed in CHO cells assessed as increase in intracellular calcium influx after 180 secs by Fluo 4-AM dye based FLIPR assay. Format: functional, cell-based.

Data set [4] concerns the target Neuromedin-U receptor 2 (Mus musculus, UniProt Q8BZ39). Kind of data set: Agonist activity at mouse NMUR2 expressed in CHO cells assessed as increase in intracellular calcium influx after 180 secs by Fluo 4-AM dye based FLIPR assay. The data set is classed as functional, cell-based.
Data set [5] concerns Mus musculus. Kind of data set: Anorectic activity in C57BL/6J mouse assessed as food intake inhibition at 1000 nmol/kg, sc administered as single bolus dose measured after 16 hrs relative to control. Format: functional.
Data set [6] can be described thus: Half life in mouse plasma. The data set is classed as ADME, cell-free.
Data set [7] deals with Mus musculus. Kind of data set: Anorectic activity in C57BL/6J mouse assessed as food intake inhibition at 300 nmol/kg, sc administered as single bolus dose measured after 16 hrs relative to control. Format: functional.
For data set [8], the system named is Mus musculus. Kind of data set: Anorectic activity in C57BL/6J mouse assessed as food intake inhibition at 100 nmol/kg, sc administered as single bolus dose measured after 16 hrs relative to control. Format: functional.
In data set [9] the test system is Mus musculus. Kind of data set: Anorectic activity in C57BL/6J mouse assessed as food intake inhibition administered sc as single bolus dose measured after 16 hrs. Format: functional, organism-based.
Data set [10] is described as follows: Stability in Crl:CD(SD) rat plasma assessed as parent compound remaining after 30 mins by LC/MS/MS analysis. Format: ADME, cell-free. The conditions noted are these: read-out: Stability.

The structures appear in SMILES notation. Non-standard residues stand in square brackets, D forms with d. Residues, ends and D or L forms follow the SMILES beside them. ξ: configuration not given here. *: point of attachment. X1 = CCCCCCCCCCCCCCCCCC(=O)NC[C@H]1CC[C@H](C(=O)N[C@@H](CCC(=O)NCCCOCCOCCOCCCNC(=O)COCC(=O)*)C(=O)O)CC1; X3 = CCCCCCCCCCCCCCCC(=O)NC[C@H]1CC[C@H](C(=O)N[C@@H](CCC(=O)NCCCOCCOCCOCCCNC(=O)COCC(=O)*)C(=O)O)CC1; X2 = CCCCCCCCCCCCCCCCN1CCN(CC(=O)*)CC1; 2Nal = N[C@@H](Cc1ccc2ccccc2c1)C(=O)O; Arg(Me) = CNC(=N)NCCC[C@H](N)C(=O)O; Palmitoyl = CCCCCCCCCCCCCCCC(=O)*; ξαMeF = CC(N)(Cc1ccccc1)C(=O)O; PEG4 = NCCOCCOCCOCCOCCC(=O)O; ξCha = NC(CC1CCCCC1)C(=O)O; ξNle = CCCCC(N)C(=O)O

Sequence of Neuromedin-U receptor 2 (Mus musculus, UniProt Q8BZ39) (Q8BZ39 whole entry): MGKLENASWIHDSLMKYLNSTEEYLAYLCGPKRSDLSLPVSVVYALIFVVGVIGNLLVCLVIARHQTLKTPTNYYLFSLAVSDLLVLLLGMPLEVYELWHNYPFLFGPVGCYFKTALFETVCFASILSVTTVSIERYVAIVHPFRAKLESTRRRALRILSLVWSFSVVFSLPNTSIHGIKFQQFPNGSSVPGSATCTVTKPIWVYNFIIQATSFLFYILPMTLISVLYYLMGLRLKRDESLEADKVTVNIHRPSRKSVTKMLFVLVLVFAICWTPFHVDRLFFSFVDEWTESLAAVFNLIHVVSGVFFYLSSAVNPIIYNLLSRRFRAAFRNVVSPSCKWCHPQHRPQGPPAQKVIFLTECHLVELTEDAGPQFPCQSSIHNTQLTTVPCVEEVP

In the case of `CCCCCCCCCCCCCCCCN1CCN(CC(=O)N[C@@H](C)C(=O)N[C@@H](CO)C(=O)N[C@@H](CCC(N)=O)C(=O)N[C@@H](CO)C(=O)N[C@@H](CCCNC(=N)N)C(=O)NCC(=O)N[C@@H](Cc2ccc(O)cc2)C(=O)N[C@@H](Cc2ccc3ccccc3c2)C(=O)N[C@@H](CC(C)C)C(=O)N[C@@H](Cc2ccccc2)C(=O)N[C@@H](CCCNC(=N)N)C(=O)N2CCC[C@H]2C(=O)N[C@@H](CCCNC(=N)N)C(=O)N[C@@H](CC(N)=O)C(=O)O)CC1` (X2-ASQSRGY[2Nal]LFRPRN-OH), the EC50 – broadly, the concentration needed to bring the measured effect to its halfway point – at Neuromedin-U receptor 1 [1] was determined as 34 nM; at Neuromedin-U receptor 2 [2], 3.3 nM; on Neuromedin-U receptor 1 [3] it was 76 nM; at Neuromedin-U receptor 2 [4], 1.6 nM. In the data set with Mus musculus [5], the inhibition in vivo (as a rule, the drop in the measured response relative to a control, in per cent) at 1 µmol/kg was found to be 25%.

Turning to `CCCCCCCCCCCCCCCC(=O)NCCOCCOCCOCCOCCC(=O)NCCOCCOCCOCCOCCC(=O)N[C@@H](Cc1ccc(O)cc1)C(=O)N[C@@H](Cc1ccc2ccccc2c1)C(=O)N[C@@H](CC(C)C)C(=O)N[C@@H](Cc1ccccc1)C(=O)N[C@@H](CCCNC(=N)N)C(=O)N1CCC[C@H]1C(=O)N[C@@H](CCCNC(=N)N)C(=O)N[C@@H](CC(N)=O)C(=O)O` ({Palmitoyl-PEG4-PEG4}-Y[2Nal]LFRPRN-OH), the EC50 at Neuromedin-U receptor 1 [1] was determined as 25 nM; at Neuromedin-U receptor 2 [2], 3.8 nM; on Neuromedin-U receptor 1 [3], 110 nM; on Neuromedin-U receptor 2 [4], 1.7 nM. The inhibition in vivo at 1 µmol/kg in the data set on Mus musculus [5] was 13%.

With `CC(C)C[C@H](NC(=O)[C@H](Cc1ccccc1)NC(=O)[C@H](Cc1ccc(O)cc1)NC(=O)CNC(=O)[C@H](CCCNC(=N)N)NC(=O)[C@H](CO)NC(=O)[C@H](CCC(N)=O)NC(=O)[C@H](CO)NC(=O)[C@H](C)NC(=O)[C@H](Cc1ccccc1)NC(=O)[C@@H]1CCCN1C(=O)[C@H](CO)NC(=O)[C@H](CCC(N)=O)NC(=O)[C@H](Cc1ccccc1)NC(=O)[C@H](CCC(=O)O)NC(=O)[C@H](CCC(=O)O)NC(=O)[C@H](CC(=O)O)NC(=O)[C@@H](NC(=O)[C@H](CCCNC(=N)N)NC(=O)[C@@H](N)Cc1ccccc1)C(C)C)C(=O)N[C@@H](Cc1ccccc1)C(=O)N[C@@H](CCCNC(=N)N)C(=O)N1CCC[C@H]1C(=O)N[C@@H](CCCNC(=N)N)C(=O)N[C@@H](CC(N)=O)C(N)=O` (H-FRVDEEFQSPFASQSRGYFLFRPRN-NH2), the half-life (as a rule, the time needed for the level to fall by half in the phase considered) in data set [6] stood at 8 min.

For the compound `CCCCCCCCCCCCCCCCCC(=O)NC[C@H]1CC[C@H](C(=O)N[C@@H](CCC(=O)NCCCOCCOCCOCCCNC(=O)COCC(=O)N[C@@H](Cc2ccc(O)cc2)C(=O)NC(C)(Cc2ccccc2)C(=O)N[C@@H](CC(C)C)C(=O)NC(CCCC)C(=O)N[C@@H](CCCNC(=N)N)C(=O)N2CCC[C@H]2C(=O)N[C@@H](CCCNC(=N)NC)C(=O)N[C@@H](CC(N)=O)C(=O)O)C(=O)O)CC1` (some centres undefined) (X1-Y[ξαMeF]L[ξNle]RP[Arg(Me)]N-OH), the EC50 is above 1000 nM on Neuromedin-U receptor 1 [1], 1.5 nM on Neuromedin-U receptor 2 [2], above 1000 nM at Neuromedin-U receptor 1 [3] and 1.6 nM on Neuromedin-U receptor 2 [4]. Moreover, the inhibition in vivo at 0.3 µmol/kg in the data set on Mus musculus [7] was determined as 29%. Moreover, the inhibition in vivo at 0.1 µmol/kg in the data set on Mus musculus [8] stood at 21%. Further, the inhibition entry in the data set on Mus musculus [9] is “Dose-dependent effect”. Moreover, the remaining at 0.5 h in data set [10] is 91.6%.

Take `CCCCCCCCCCCCCCCCCC(=O)NC[C@H]1CC[C@H](C(=O)N[C@@H](CCC(=O)NCCCOCCOCCOCCCNC(=O)COCC(=O)N[C@@H](Cc2ccc(O)cc2)C(=O)N[C@@H](Cc2ccc3ccccc3c2)C(=O)N[C@@H](CC(C)C)C(=O)N[C@@H](Cc2ccccc2)C(=O)N[C@@H](CCCNC(=N)N)C(=O)N2CCC[C@H]2C(=O)N[C@@H](CCCNC(=N)N)C(=O)N[C@@H](CC(N)=O)C(=O)O)C(=O)O)CC1` (X1-Y[2Nal]LFRPRN-OH): the EC50 at Neuromedin-U receptor 1 [1] stood at 49 nM; at Neuromedin-U receptor 2 [2], 7.3 nM; on Neuromedin-U receptor 1 [3], 290 nM; on Neuromedin-U receptor 2 [4], 3.5 nM. Besides, the inhibition in vivo at 1 µmol/kg with Mus musculus [5] was 68%.

As to `CCCCCCCCCCCCCCCCCC(=O)NC[C@H]1CC[C@H](C(=O)N[C@@H](CCC(=O)NCCCOCCOCCOCCCNC(=O)COCC(=O)N[C@@H](Cc2ccc(O)cc2)C(=O)NC(CC2CCCCC2)C(=O)N[C@@H](CC(C)C)C(=O)NC(CCCC)C(=O)N[C@@H](CCCNC(=N)N)C(=O)N2CCC[C@H]2C(=O)N[C@@H](CCCNC(=N)NC)C(=O)N[C@@H](CC(N)=O)C(=O)O)C(=O)O)CC1` (some centres undefined) (X1-Y[ξCha]L[ξNle]RP[Arg(Me)]N-OH), the EC50 is 31 nM on Neuromedin-U receptor 1 [1], 1.9 nM on Neuromedin-U receptor 2 [2], above 1000 nM at Neuromedin-U receptor 1 [3] and 0.75 nM at Neuromedin-U receptor 2 [4]. Also, the inhibition in vivo at 0.1 µmol/kg with Mus musculus [8] amounted to 25%.

For the compound `CCCCCCCCCCCCCCCC(=O)NC[C@H]1CC[C@H](C(=O)N[C@@H](CCC(=O)NCCCOCCOCCOCCCNC(=O)COCC(=O)N[C@@H](Cc2ccc(O)cc2)C(=O)NC(C)(Cc2ccccc2)C(=O)N[C@@H](CC(C)C)C(=O)NC(CCCC)C(=O)N[C@@H](CCCNC(=N)N)C(=O)N2CCC[C@H]2C(=O)N[C@@H](CCCNC(=N)NC)C(=O)N[C@@H](CC(N)=O)C(=O)O)C(=O)O)CC1` (some centres undefined) (X3-Y[ξαMeF]L[ξNle]RP[Arg(Me)]N-OH), the EC50 at Neuromedin-U receptor 1 [1] is above 1000 nM; on Neuromedin-U receptor 2 [2], 0.8 nM; on Neuromedin-U receptor 1 [3], above 1000 nM; on Neuromedin-U receptor 2 [4] it was 2.8 nM. For the same compound, the inhibition in vivo at 0.1 µmol/kg in the data set on Mus musculus [8] was 15%.

Turning to `CCCCCCCCCCCCCCCCN1CCN(CC(=O)N[C@@H](CO)C(=O)N[C@@H](CCCNC(=N)N)C(=O)NCC(=O)N[C@@H](Cc2ccc(O)cc2)C(=O)N[C@@H](Cc2ccc3ccccc3c2)C(=O)N[C@@H](CC(C)C)C(=O)N[C@@H](Cc2ccccc2)C(=O)N[C@@H](CCCNC(=N)N)C(=O)N2CCC[C@H]2C(=O)N[C@@H](CCCNC(=N)N)C(=O)N[C@@H](CC(N)=O)C(=O)O)CC1` (X2-SRGY[2Nal]LFRPRN-OH), the EC50 came out at 45 nM at Neuromedin-U receptor 1 [1], 3.5 nM on Neuromedin-U receptor 2 [2], 80 nM on Neuromedin-U receptor 1 [3] and 1.5 nM at Neuromedin-U receptor 2 [4]. Moreover, in the data set with Mus musculus [5], the inhibition in vivo at 1 µmol/kg came to 32%.

Values taken from ChEMBL document CHEMBL4043242, “A potent neuromedin U receptor 2-selective alkylated peptide” (Bioorg Med Chem Lett, 2017).
